Type in all cases: in vitro ADME
Series [1] is described as follows: Plasma protein binding (PPB), equilibrium dialysis, mouse plasma. The settings on record: 5 h at 37° C., read-out: Plasma protein binding (Bound %) Mouse (converted). Here is the method:
(§1) The experiment is intended to determine plasma protein binding (PPB) data of the test compounds disclosed herein.
(§2) In the PPB experiment, the final administration matrix contained the test compound or a reference compound with a concentration of 1 μM and DMSO with a content of 0.2%.
(§3) Collecting samples in initial time: 25 μL of the matrix containing the compound was added into a blank 96-well collecting plate, and the plate was stored at −20° C.
(§4) An equilibrated dialysis device was prepared. 100 μL of buffer was added to the receiving side of the equilibrium dialysis plate. Then 100 μL of the administration matrix containing the compound or the reference compound was added into an administration side of the equilibrium dialysis plate. The prepared equilibrium dialysis plate was placed in a 37° C. shaker to be shaken for 5 h at 60 rpm.
(§5) Sample was prepared at the end of cultivation (5 h): Preparing sample in the receiving side: 25 μL of sample from a receiving side was taken out and placed in a 96-well sample collecting plate, and 25 μL of a corresponding matrix (blank plasma) was added for mixing: 200 μL of ACN containing an internal standard was added, shaken for 10 minutes at 600 rpm, and centrifuged at 5594 g for 15 min.
(§6) Preparing sample in the administration side: 25 μL of the sample containing test compound and reference compound from the administration side was taken out and 25 μL of a blank buffer was added for mixing; 200 μL of ACN containing an internal standard was added, shaken for 10 minutes at 600 rpm, and centrifuged at 5594 g for 15 min.
(§7) Preparing sample in initial time: the sample containing test compound and reference compound was re-melted at 37° C. in initial time and then mixed with the corresponding matrix (blank buffer) in the same volume (25 μL); 200 μL of ACN containing an internal standard was added, shaken for 10 minutes at 600 rpm, and centrifuged at 5594 g for 15 min.
(§8) After all the samples were centrifuged, 50 μL of a supernatant was taken and added into 50 μL of ultrapure water for mixing, and the samples were sent to liquid chromatography-mass spectrometry.
On the technique in general: In equilibrium dialysis free small molecules cross a membrane that holds back macromolecules.

A short description of series [2]: Plasma protein binding (PPB), equilibrium dialysis, human plasma. The settings on record: 5 h at 37° C., read-out: Plasma protein binding (Bound %) Human (converted). Here is the method: as §1, §2, §3, §4, §5, §6, §7, §8
For the next series, the target named is T1, CYP2D6 (Homo sapiens, UniProt P10635).
T1 construct: co-incubated at 7 concentrations with human liver microsomes and five probe substrates; tissue Corning (USA); host or cells: mixed (pooled) human liver microsomes
In words: CYP450 inhibition in human liver microsomes, CYP2D6. As to conditions: human, microsomes. Here is the method: (§9) This study was intended to investigate the inhibitory effect of the test compounds on 5 major enzymes in human P450 superfamily, CYP1A2, 2C9, 2C19, 2D6 and 3A4-M. The mixed human liver microsomes used in this assay were purchased from Corning (USA). The test compound (compound 14) was co-incubated at 7 concentrations with human liver microsomes and five probe substrates (phenacetin for CYP1a2, diclofenac for CYP2C9, mephenytoin for CYP2C19, dextromethorphan for CYP2D6, midazolam for CYP3A4-M, mixed). The reaction was initiated by adding coenzyme NADPH, and terminated by adding acetonitrile containing internal standard. After the proteins were precipitated, the supernatant was centrifuged. The characteristic metabolites in the supernatant (acetaminophen for CYP1A2, 4-hydroxydiclofenac for CYP2C9, 4-hydroxymephenytoin for CYP2C19, dextrorphan for CYP2D6, 1-hydroxymidazolam for CYP3A4-M) were analyzed by LC-MS/MS. The influence of the test compounds on production of the characteristic metabolites was finally analyzed on the basis of the data obtained. A selective inhibitor (ketoconazole for CYP3A4-M) may be used as positive control. All samples were tested in duplicate.
In general terms: Liver microsomes are vesicles of endoplasmic reticulum, rich in cytochrome P450 enzymes.

For series [3], the target named is T2, CYP3A4 (Homo sapiens, UniProt P08684).
T2 construct: The test compounds were co-incubated with the human liver microsomes and a probe substrate midazolam (CYP3A4); tissue Corning (USA); host or cells: mixed (pooled) human liver microsomes
The series can be described thus: CYP450 inhibition in human liver microsomes, CYP3A4-M. The settings on record: human, microsomes. The protocol: as §9

Series [4] in a line: Plasma protein binding (PPB), equilibrium dialysis, rat plasma. As to conditions: 5 h at 37° C., read-out: Plasma protein binding (Bound %) Rat (converted). The protocol:
as §1, §2, §3, §4, §5, §6, §7, §8

Series [5] has as its target T2, CYP3A4. The series can be described thus: Time-dependent inhibition (TDI) of CYP3A4 in human liver microsomes. The settings on record: probe substrate midazolam. Here is the method: This study was intended to investigate the time-dependent inhibition effect of the compounds on CYP3A4 in human P450 superfamily. The mixed human liver microsomes used in this assay were purchased from Corning (USA).
The test compounds were co-incubated with the human liver microsomes and a probe substrate midazolam (CYP3A4), and the concentration of the test compounds was set at 30 μM. The reaction was initiated by adding coenzyme NADPH, and terminated by adding acetonitrile dossolved with internal standard in advance. After the proteins were precipitated, the supernatant was centrifuged. The characteristic metabolite 1-hydroxy-midazolam (CYP3A4) in the supernatant was analyzed by LC-MS/MS. The influence of the test compounds on production of the characteristic metabolites was finally analyzed on the basis of the data obtained. A selective inhibitor (verapamil for CYP3A4-M) was used as positive control.

This note sets out measurements from patent US12617770B2, “IRAK inhibitor and preparation method therefor and use thereof” (WUHAN CREATERNA SCIENCE AND TECHNOLOGY CO., LTD., priority 2019, dated 2026).

Some results are limits rather than exact numbers.

T2 sequence (P08684 whole entry): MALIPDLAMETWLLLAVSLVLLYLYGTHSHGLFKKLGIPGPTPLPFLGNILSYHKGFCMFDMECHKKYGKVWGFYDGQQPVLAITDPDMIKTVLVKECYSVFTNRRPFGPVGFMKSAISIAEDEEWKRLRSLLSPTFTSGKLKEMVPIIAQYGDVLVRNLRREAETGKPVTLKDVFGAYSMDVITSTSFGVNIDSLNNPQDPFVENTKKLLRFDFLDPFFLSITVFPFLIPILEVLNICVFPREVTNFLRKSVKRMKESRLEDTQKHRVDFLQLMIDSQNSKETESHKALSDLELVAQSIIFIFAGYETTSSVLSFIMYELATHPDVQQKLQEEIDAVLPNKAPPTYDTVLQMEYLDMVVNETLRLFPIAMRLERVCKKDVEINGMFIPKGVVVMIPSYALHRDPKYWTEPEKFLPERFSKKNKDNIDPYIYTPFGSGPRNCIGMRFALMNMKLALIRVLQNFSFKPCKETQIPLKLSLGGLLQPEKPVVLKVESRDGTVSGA
T1 sequence (P10635 whole entry): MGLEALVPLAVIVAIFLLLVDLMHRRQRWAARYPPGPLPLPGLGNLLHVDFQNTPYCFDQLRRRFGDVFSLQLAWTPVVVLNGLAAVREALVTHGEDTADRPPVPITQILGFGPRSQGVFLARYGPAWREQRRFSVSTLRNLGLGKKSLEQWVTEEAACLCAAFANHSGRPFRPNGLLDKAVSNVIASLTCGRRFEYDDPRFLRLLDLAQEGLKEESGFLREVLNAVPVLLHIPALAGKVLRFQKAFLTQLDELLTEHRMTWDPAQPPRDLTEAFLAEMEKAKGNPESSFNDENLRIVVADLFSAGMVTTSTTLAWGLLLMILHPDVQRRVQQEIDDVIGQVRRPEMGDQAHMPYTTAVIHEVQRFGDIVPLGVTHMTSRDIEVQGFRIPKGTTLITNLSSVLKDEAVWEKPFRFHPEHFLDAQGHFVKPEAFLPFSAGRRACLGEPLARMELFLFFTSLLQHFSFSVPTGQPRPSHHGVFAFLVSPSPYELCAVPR

By IC50 is commonly meant the midpoint of a concentration-inhibition curve. Low values mean inhibition by little substance, high ones a need for much substance. Take `CC(C)(O)CCn1cc2cc(NC(=O)c3cccc(C(F)(F)F)n3)c(C(C)(C)O)cc2n1` [A, reference compound]: the figures for the fraction unbound at 5 h, 1 μM in series [1], in series [2] and in series [4] were 0.148, 0.0098 and 0.13, respectively. Besides, the concentration for half-maximal inhibition (IC50) against CYP2D6 and against CYP3A4 [3] was more than 30 µM each time.

As for `COc1cc2nn([C@H]3CC[C@H](O)CC3)cc2cc1NC(=O)c1cccc(C2CC2)[n+]1[O-]` [Compound 014, 2-cyclopropyl-6-((2-((1r,4r)-4-hydroxycyclohexyl)-6-methoxy-2H-indazol-5-yl)carbamoyl)pyridine 1-oxide], on CYP3A4 [5], the “TDI (3A4, 30 μM)” value is on record as “+3.85%”.
